Reference: paper PMC9785441, “A Broad Spectrum Antiparasitic Activity of Organotin (IV) Derivatives and Its Untargeted Proteomic Profiling Using Leishmania donovani” (Pathogens, 2022)

Assays:
[1] = test system: L. donovani promastigotes; test: L. donovani promastigote viability assay (resazurin); format: cell-based, Leishmania donovani; conditions: Leishmania donovani; Figure S1 dose response curves, RFU; read-out: IC50 against the promastigotes of L. donovani
Method: Promastigotes of L. donovani from late log phase culture were diluted to 2.0 × 10^6/mL in M-199 containing 10% FBS, 25 mM HEPES (Gibco 15630-080), 100 µM adenine, 12 mM NaHCO3, 10 µM folic acid, 1% penicillin/streptomycin (Gibco 15140-122) as described previously. Compounds and controls were transferred from compound plates to 384 well assay plates with the use of an acoustic transfer system (ATS, EDC Biosystems, Fremont, CA, USA). Promastigotes were incubated with compounds at 29 °C for 48 h. To measure parasite viability, resazurin sodium salt (7-hydroxy-3H-phenoxazin3-one 10-oxide) was dissolved in PBS and added to each well at a volume of 5 µL (final concentration of 44 µM). After incubating for 4 h at room temperature, fluorescence (ex 571 nm/em 584 nm) was recorded with an Envision (Perkin Elmer, Waltham, MA, USA) microplate fluorescence/luminescence reader. […] For positive and negative control amphotericin B and 0.5% DMSO was used, respectively. Dose response and EC50 analyses were obtained using GraphPad Prism 9 Software (Graph Pad Software Inc., San Diego, CA, USA).

[2] = test system: N. fowleri (KUL strain) trophozoites; test: N. fowleri trophozoite viability assay (CellTiter-Glo); format: cell-based, Naegleria fowleri; conditions: Naegleria fowleri, 48 h
Method: N. fowleri (KUL strain) was cultured in Nelson’s medium supplemented with 10% FBS and kept at 37 °C. For all experiments, trophozoites were harvested during the logarithmic phase of growth. Test compounds were serially diluted and transferred to a white solid bottomed 96-well tissue culture plate (E&K Scientific, Swedesboro, NJ, USA) followed by addition of 10,000 N. fowleri trophozoites in Nelson’s medium in a final volume of 100 µL and a final concentration of compounds ranging from 50 to 0.39 µM. Amphotericin B was used as positive control and assay plates were incubated for 48 h at 37 °C. Parasite viability was measured as described for E. histolytica and G. lamblia. EC50 values were obtained using the GraphPad Prism 9 Software.

[3] = test system: T. cruzi (infecting C2C12); test: T. cruzi intracellular amastigote assay in C2C12 cells (high content imaging); format: cell-based, Trypanosoma cruzi; conditions: Trypanosoma cruzi, C2C12, 72 h, read-out: EC50 T. cruzi (infecting C2C12)
Method: Mouse C2C12 myoblasts (ATCC CRL-1772) were cultivated in RPMI 1640 medium supplemented with 5% FBS and kept at 37 °C and 5% CO2. T. cruzi CAI-72 trypomastigotes were obtained from the supernatant of C2C12 cells infected four to seven days previously. For the assay, 500 C2C12 cells were mixed with 7500 T. cruzi parasites and seeded into 384-well plates at a 50 µL final volume. Test compounds and reference drugs (Benznidazole and K11777) were pre-spotted into the 384 well black bottom plates prior to the addition of cells and parasites with final assay concentration of 20 µM to 0.02 µM. The plates were incubated at 37 °C^, 5% CO2 for 72 h. Cultures were then fixed with 4% formaldehyde and 0.5 µg/mL DAPI (diamidino-2-phenylindole) was added for staining nucleic acids. Plates were kept protected from light for 1 h and then imaged in an ImageXpress Micro XLS automated high content imager (Molecular Devices, San Jose, CA, USA). Imaging and data analysis were performed as described for L. donovani amastigotes on biological triplicates.

[4] = test system: E. histolytica HM1:IMSS trophozoites; test: E. histolytica trophozoite viability assay (CellTiter-Glo); format: cell-based, Entamoeba histolytica; conditions: Entamoeba histolytica, 48 h
Method: Trophozoites of E. histolytica HM1:IMSS were maintained in vitro as described in TYI-S-33 medium supplemented with penicillin (100 U/mL) and streptomycin (100 µg/mL). Test compounds were serially diluted and transferred to a white solid bottomed 96-well tissue culture plate (E&K Scientific, Swedesboro, NJ, USA) followed by addition of 5000 E. histolytica trophozoites per well for a final volume of 100 µL TYI-S-33 medium and a final concentration of compounds ranging from 50 to 0.39 µM. Metronidazole were used as positive control and assay plates were incubated for 48 h at 37 °C. The plates maintained kept anaerobically using the GasPak EZ Anaerobic Gas Generating Pouch System (VWR). Parasite viability was measured in triplicate using the CellTiter-Glo luminescence kit (Promega G9243) in an Envision plate reader (Perkin Elmer, Waltham, MA, USA). EC50 values were obtained using GraphPad Prism 9 Software.

[5] = test system: G. lamblia (WB strain) trophozoites; test: G. lamblia trophozoite viability assay (CellTiter-Glo); format: cell-based, Giardia lamblia; conditions: Giardia duodenalis, 48 h
Method: Trophozoites of G. lamblia (WB strain) were maintained in vitro as described in TYI-S-33 medium supplemented with penicillin (100 U/mL) and streptomycin (100 µg/mL). Cells were harvested during the logarithmic phase of the growth for antiparasitic assessment. Test compounds were serially diluted and transferred to a white solid bottomed 96-well tissue culture plate (E&K Scientific, Swedesboro, NJ, USA) followed by addition of 5000 G. lamblia trophozoites for a final volume of 100 µL of TYI-S-33 medium and a final concentration of compounds ranging from 50.0 to 0.39 µM. Metronidazole was used as a positive control and assay plates were incubated for 48 h at 37 °C in the GasPak EZ Anaerobic Gas Generating Pouch System (VWR). Parasite viability was measured in triplicate using the CellTiter-Glo luminescence kit in an Envision plate reader. EC50 values were obtained using the GraphPad Prism 9 Software.

[6] = test system: T. b. brucei Lister 427 bloodstream forms; test: T. brucei bloodstream form viability assay (SYBR Green); format: cell-based, Trypanosoma brucei; conditions: Trypanosoma brucei; bloodstream forms, 72 h
Method: Bloodstream forms of T. b. brucei Lister 427 were cultured in complete HMI-9 medium in T25 suspension culture flasks (Thermo Scientific, Cat. 12-566-84) and maintained at 37 °C and 5% CO2. Trypanosomes were kept in log-phase growth and passaged every 48 h. […] Pentamidine were used as a positive control for T. brucei assay. Compounds were diluted with fresh HMI-9 medium (99 µL/well). Parasites in log-phase were suspended at 2 × 10^5 parasites/mL in HMI-9 medium and then added to each well (100 µL) to give 2 × 10^4 trypanosomes/well. Assay plates were incubated at 37 °C and 5% CO2 for 72 h. Parasite lysate was obtained by addition of 50 µL/well of lysis solution (0.012% saponin, 0.12% Triton X-100, 7.5 mM ETDA, 30 mM Tris, pH 7.5) containing 0.3 µL/mL SYBR Green I (10,000× in DMSO; Invitrogen, Carlsbad, CA, USA). Assay plates were incubated in the dark for 1 h at room temperature. Fluorescence was measured at 485 nm excitation and 535 nm emission wavelengths using an EnVision multilabel plate reader (PerkinElmer, Waltham, MA, USA). In each assay plate, parasite viability was normalized relative to positive (pentamidine) and negative (0.5% DMSO) controls in each assay plate. Assays were performed in biological and technical duplicates, and dose–response and EC50 data were generated with GraphPad Prism 9 using a sigmoidal four parameter logistic curve.

S. mansoni, adult worm = test: S. mansoni adult worm ex vivo phenotypic screen (severity score); format: cell-based, Schistosoma mansoni; conditions: after 24 h; tested at 10, 5, 2.5 and 1.25 µM; EC50
Text: The Naval Medical Research Institute (NMRI) isolate of S. mansoni was used. The parasite was cycled between Biomphalaria glabrata snails and male Golden Syrian hamsters (infected at 4–6 weeks of age) as intermediate and definitive hosts, respectively. Hamsters were infected and maintained in accordance with protocols approved by the Institutional Animal Care and Use Committee (IACUC) at the University of California San Diego. The acquisition, preparation and in vitro maintenance of S. mansoni have been described. Briefly, adult worms were harvested from hamsters 42 days post-infection in RPMI or DMEM, and washed five times prior to maintenance overnight at 37 °C and 5% CO2 in Basch medium containing 4% heat-inactivated FBS, 100 µg/mL streptomycin and 100 U/mL penicillin.
Ex vivo screens with adults employed 24-well flat-bottomed plates and approximately 5 males and 2–3 females/well. The complex and often dynamic phenotypic responses that the schistosome parasite is capable of were observed using a Zeiss Axiovert A1 inverted microscope at 24 h. Observations were classified using a constrained nomenclature that involves simple “descriptors” to convey changes in shape, motility and appearance, and the inability of the male worm to adhere to the bottom of the well, compared to DMSO controls. Each descriptor was given a value of 1 and these were added up to yield a “severity score” with a maximum of 4. Evidence of degeneracy or death was awarded a value of 4 as was damage to the tegument (parasite’s surface) on the understanding this would compromise survival in vivo. […] Data were averaged across two experiments for each compound concentration tested.

C[C@@H]1[C@H](O)[C@@H](C)/C=C/C=C/C=C/C=C/C=C/C=C/C=C/[C@H](O[C@@H]2O[C@H](C)[C@@H](O)[C@H](N)[C@@H]2O)C[C@@H]2O[C@](O)(C[C@@H](O)C[C@@H](O)[C@H](O)CC[C@@H](O)C[C@@H](O)CC(=O)O[C@H]1C)C[C@H](O)[C@H]2C(=O)O [AmpB, amphotericin B, reference compound]
IC50 [1]: 740 nM
EC50 [2]: 90 nM

O=C(Cn1ccnc1[N+](=O)[O-])NCc1ccccc1 [Benznidazole, benznidazole, reference compound]
EC50 [3]: 4710 nM

Cc1ncc([N+](=O)[O-])n1CCO [Metronidazole, metronidazole, reference compound]
EC50 [4]: 4400 nM
EC50 [5]: 5700 nM

N=C(N)c1ccc(OCCCCCOc2ccc(C(=N)N)cc2)cc1 [Pentamidine, pentamidine, reference compound]
EC50 [6]: 10 nM

O=C(C1CCCCC1)N1CC(=O)N2CCc3ccccc3C2C1 (stereo not shown) [Praziquantel, praziquantel, reference compound]
S. mansoni, adult worm: least concentration at which a severity score of 4 was recorded (S. mansoni, adult worm): 1.25 µM
